Earlier results as cited in US9629818B2, “Pharmaceutical composition of tapentadol for parenteral administration” (TORRENT PHARMACEUTICALS LTD, priority 2012, dated 2017).

Key:
[1] = given orally
[2] = in vivo

CC[C@@H](c1cccc(O)c1)[C@@H](C)CN(C)C [tapentadol, (−)-(1R,2R)-3-(3-dimethylamino-1-ethyl-2-methyl-propyl)-phenol]
parent compound metabolized [1]: About 97%
duration of analgesic effect [2]: ≤ 12 h
